Test [1] addresses T1, bovine erythrocyte CA-II (Bos taurus, UniProt P00921). In words: CA-II in vitro inhibition assay. In kind it is biochemical. As to conditions: for Percent inhibition (0.5 mM): compound at 0.5 mM; for inhibition at 500 µM: read-out: Percent inhibition (0.5 mM).
Test [2] concerns the target T1, bovine erythrocyte CA-II. In words: Enzyme kinetics study of CA-II inhibition. In kind it is biochemical.
The mark [3] stands for this setting: read-out: IC50 ± μM (SEM), bovine CA-II, triplicate, SEM.

As usually defined, the IC50 is the concentration at which inhibition is half-maximal. Usually inhibition stands for the share of the control response that was lost under treatment. What is called Ki is a dissociation constant, usually derived from enzyme kinetics or from competition with a known ligand. Higher therefore signals weaker binding.

Read-outs that look alike come from different tables or passages of the source.

T1 sequence (P00921 whole entry): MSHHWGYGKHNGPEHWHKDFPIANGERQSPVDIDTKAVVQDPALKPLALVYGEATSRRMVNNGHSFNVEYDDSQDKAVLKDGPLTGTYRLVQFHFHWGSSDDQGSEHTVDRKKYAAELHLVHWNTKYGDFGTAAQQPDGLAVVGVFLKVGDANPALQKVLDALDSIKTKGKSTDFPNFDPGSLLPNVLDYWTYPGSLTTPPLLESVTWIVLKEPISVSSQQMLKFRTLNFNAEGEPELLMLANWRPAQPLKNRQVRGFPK

Consider `C(=N\N=c1\scc(-c2ccccc2)n1C1CCCCC1)/c1ccc(N2CCOCC2)cc1` [Compound 3, 4-{4-[(E)-{[(E)-3-cyclohexyl-4-phenylthiazol-2(3H)-ylidene]hydrazone}methyl]phenyl} morpholine], for which the “Percent inhibition (0.5 mM)” value on bovine erythrocyte CA-II [1] (bovine CA-II) is recorded as 86.44%. The IC50 at bovine erythrocyte CA-II [1] (setting [3]) amounted to 30.2 ± 0.59 µM.
In the case of `C(=N\N=c1\scc(-c2ccccc2)n1Cc1ccccc1)/c1ccc(N2CCOCC2)cc1` [Compound 5, 4-{4-[(E)-{[(E)-3-benzyl-4-phenylthiazol-2(3H)-ylidene] hydrazone}methyl]phenyl} morpholine], the “Percent inhibition (0.5 mM)” value at bovine erythrocyte CA-II [1] (bovine CA-II) turned out to be 86.61%. In addition, the IC50 at bovine erythrocyte CA-II [1] (setting [3]) is 26.5 ± 0.68 µM.
On the same counts, the results for `C(=N\N=c1\scc(-c2ccccc2)n1CCc1ccccc1)/c1ccc(N2CCOCC2)cc1` [Compound 6, 4-{4-[(E)-{[(E)-3-phenethyl-4-phenylthiazol-2(3H)-ylidene]hydrazone}methyl]phenyl} morpholine] are 84.29% and 34.6 ± 1.1 µM.
As to `C(=N\N=c1\scc(-c2ccccc2)n1CCN1CCOCC1)/c1ccc(N2CCOCC2)cc1` [Compound 7, 4-{2-[(E)-2-{[(E)-4-morpholinobenzylidene]hydrazineylidene}-4-phenylthiazol-3(2H)-yl]ethyl}morpholine], on bovine erythrocyte CA-II [1], the IC50 stood at 37.2 ± 1.37 µM and the inhibition at 500 µM is 80.9%.
For the compound `O=[N+]([O-])c1cccc(-n2c(-c3ccccc3)cs/c2=N/N=C/c2ccc(N3CCOCC3)cc2)c1` [Compound 8, 4-{4-[(E)-{[(E)-3-(3-nitrophenyl)-4-phenylthiazol-2(3H)-ylidene] hydrazone}methyl]phenyl} morpholine], the “Percent inhibition (0.5 mM)” value at bovine erythrocyte CA-II [1] (bovine CA-II) was 83.11%. Besides, on bovine erythrocyte CA-II [1] (setting [3]), the IC50 is 27.4 ± 0.47 µM.
On the same counts, the results for `C(=N\N=c1\scc(-c2ccccc2)n1-c1cccc2ccccc12)/c1ccc(N2CCOCC2)cc1` [Compound 10, 4-{4-[(E)-{[(E)-3-(naphthalen-1-yl)-4-phenylthiazol-2(3H)-ylidene] hydrazone}methyl]phenyl} morpholine] are 80.20% and 39.7 ± 1.41 µM.
With `Clc1ccc(-c2cs/c(=N/N=C/c3ccc(N4CCOCC4)cc3)n2Cc2ccccc2)cc1` [Compound 14, 4-{4-[(E)-{[(E)-3-benzyl-4-(4-chlorophenyl)thiazol-2(3H)-ylidene]hydrazone}methyl]phenyl}morpholine], the “Percent inhibition (0.5 mM)” value on bovine erythrocyte CA-II [1] (bovine CA-II) is reported as 80.69%. For the same compound, the IC50 at bovine erythrocyte CA-II [1] (setting [3]) was 35.4 ± 0.64 µM.
As for `Clc1ccc(-c2cs/c(=N/N=C/c3ccc(N4CCOCC4)cc3)n2CCc2ccccc2)cc1` [Compound 15, 4-{4-[(E)-{[(E)-4-(4-chlorophenyl)-3-phenethylthiazol-2(3H)-ylidene]hydrazone}methyl]phenyl}morpholine], the “Percent inhibition (0.5 mM)” value on bovine erythrocyte CA-II [1] (bovine CA-II) was found to be 75.36%. In addition, the IC50 on bovine erythrocyte CA-II [1] (setting [3]) was 49.3 ± 1.35 µM.
For the compound `Cc1ccc(Cn2c(-c3ccc(Cl)cc3)cs/c2=N/N=C/c2ccc(N3CCOCC3)cc2)cc1` [Compound 16, 4-{4-[(E)-{[(E)-4-(4-chlorophenyl)-3-(4-methylbenzyl)thiazol-2(3H)-ylidene]hydrazone}methyl]phenyl}morpholine], at bovine erythrocyte CA-II [1] (bovine CA-II), the “Percent inhibition (0.5 mM)” value is recorded as 70.20%. Moreover, the IC50 at bovine erythrocyte CA-II [1] (setting [3]) was 56.3 ± 1.4 µM.
Consider `Clc1ccc(-c2cs/c(=N/N=C/c3ccc(N4CCOCC4)cc3)n2CCN2CCOCC2)cc1` [Compound 17, 4-{2-[(E)-2-{[(E)-4-morpholinobenzylidene]hydrazineylidene}-4-(4-chlorophenyl)thiazol-3(2H)-yl]ethyl}morpholine], for which, on bovine erythrocyte CA-II [1], 51.2 ± 1.26 µM corresponded to half-maximal inhibition (IC50) and the inhibition at 500 µM was 71.2%.
Consider `COc1ccc(-n2c(-c3ccc(Cl)cc3)cs/c2=N/N=C/c2ccc(N3CCOCC3)cc2)cc1` [Compound 19, 4-{4-[(E)-{[(E)-4-(4-chlorophenyl)-3-(4-methoxyphenyl)thiazol-2(3H)-ylidene] hydrazone}methyl]phenyl}morpholine], for which, at bovine erythrocyte CA-II [1] (bovine CA-II), the “Percent inhibition (0.5 mM)” value is on record as 70.35%. Also, at bovine erythrocyte CA-II [1] (setting [3]), the IC50 amounted to 48.2 ± 1.19 µM.
As to `Cc1cccc(C)c1-n1c(-c2ccc(Cl)cc2)cs/c1=N/N=C/c1ccc(N2CCOCC2)cc1` [Compound 21, 4-{4-[(E)-{[(E)-4-(4-chlorophenyl)-3-(2,6-dimethylphenyl)thiazol-2(3H)-ylidene]hydrazone}methyl]phenyl}morpholine], the “Percent inhibition (0.5 mM)” value at bovine erythrocyte CA-II [1] (bovine CA-II) was 81.46%. The IC50 on bovine erythrocyte CA-II [1] (setting [3]) amounted to 38.6 ± 0.48 µM.
On to `O=[N+]([O-])c1ccc(-c2cs/c(=N/N=C/c3ccc(N4CCOCC4)cc3)n2CCN2CCOCC2)cc1` [Compound 24, 4-{2-[(E)-2-{[(E)-4-morpholinobenzylidene]hydrazineylidene}-4-(4-nitrophenyl)thiazol-3(2H)-yl]ethyl}morpholine], for which, on bovine erythrocyte CA-II [1], the IC50 stood at 14.7 ± 0.29 µM and the inhibition at 500 µM amounted to 90.2%. The compound also returned a Ki on bovine erythrocyte CA-II [2] of 9.64 ± 0.007 µM. For the same compound, the type of inhibition entry on bovine erythrocyte CA-II [2] (bovine CA-II, Lineweaver–Burk plot) was “competitive type of inhibition”.
Regarding `COc1ccc(-n2c(-c3ccc([N+](=O)[O-])cc3)cs/c2=N/N=C/c2ccc(N3CCOCC3)cc2)cc1` [Compound 25, 4-{4-[(E)-{[(E)-3-(4-methoxyphenyl)-4-(4-nitrophenyl)thiazol-2(3H)-ylidene]hydrazone}methyl]phenyl}morpholine], the “Percent inhibition (0.5 mM)” value on bovine erythrocyte CA-II [1] (bovine CA-II) stood at 88.69%. Moreover, at bovine erythrocyte CA-II [1] (setting [3]), the half-inhibitory concentration (IC50) is 16.5 ± 0.4 µM.
Turning to `Cc1cccc(C)c1-n1c(-c2ccc([N+](=O)[O-])cc2)cs/c1=N/N=C/c1ccc(N2CCOCC2)cc1` [Compound 26, 4-{4-[(E)-{[(E)-3-(2,6-dimethylphenyl)-4-(4-nitrophenyl)thiazol-2(3H)ylidene] hydrazone}methyl]phenyl}morpholine], the “Percent inhibition (0.5 mM)” value at bovine erythrocyte CA-II [1] (bovine CA-II) is 89.76%. Besides, at bovine erythrocyte CA-II [1] (setting [3]), the half-inhibitory concentration (IC50) is 17.2 ± 0.36 µM.
In the same order, the values of `Brc1ccc(-c2cs/c(=N/N=C/c3ccc(N4CCOCC4)cc3)n2-c2ccccc2)cc1` [Compound 27, 4-{4-[(E)-{[(E)-4-(4-bromophenyl)-3-phenylthiazol-2(3H)-ylidene]hydrazone}methyl]phenyl}morpholine] are 84.95% and 23.8 ± 0.44 µM.

Source of the values: article PMC11228576 (RSC Advances, 2024).
